Values of other authors in patent US8034844B2, “Compositions having a high antiviral efficacy” (The Dial Corporation, priority 2006, dated 2011).

System: rhinoviral infections
Conditions: vs placebo users

II [iodine]
Incidence of colds in users: significantly fewer colds than placebo users
